Experiments:
Format in all cases: in vivo
[1] = test system: Italian ryegrass (Lolium multiflorum); test: Test A preemergence, visual plant response rating; settings: for Ryegrass, Italian plant response rating: 125 g ai/ha, preemergence, 0 to 100 scale, 0 no effect, 100 complete control; for Ryegrass, Italian plant response rating (0 to 100 scale): 500 g ai/ha Preemergence, approx. 10 days
Method in brief: (§1)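 Compared with untreated controls, treated plants received a visual injury score on a 0–100 scale around 10 days after application. The compound, in a non-phytotoxic solvent with surfactant, was given as a preemergence soil spray or postemergence at the one- to two-leaf stage.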

[2] = test system: barnyardgrass (Echinochloa crus-galli); test: Test A preemergence, visual plant response rating; settings: for Barnyardgrass plant response rating: 125 g ai/ha, preemergence, 0 to 100 scale, 0 no effect, 100 complete control; for Barnyardgrass plant response rating (0 to 100 scale): 500 g ai/ha Preemergence, approx. 10 days
Method in brief: as §1

[3] = test system: foxtail, giant (giant foxtail, Setaria faberii); test: Test A preemergence, visual plant response rating; settings: for Foxtail, Giant plant response rating: 125 g ai/ha, preemergence, 0 to 100 scale, 0 no effect, 100 complete control; for Foxtail, Giant plant response rating (0 to 100 scale): 500 g ai/ha Preemergence, approx. 10 days
Method in brief: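 Ratings 0–100 (100 = complete control), visual, vs untreated controls at ~10 days. Application pre- or postemergence; solvent mixture with surfactant; loam/sand medium.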

kochia (Kochia scoparia) [4] = test: Test A preemergence, visual plant response rating; settings: for Kochia plant response rating: 125 g ai/ha, preemergence, 0 to 100 scale, 0 no effect, 100 complete control; for Kochia plant response rating (0 to 100 scale): 500 g ai/ha Preemergence, approx. 10 days
Method in brief: as §1

[5] = test system: pigweed (Amaranthus retroflexus); test: Test A preemergence, visual plant response rating; settings: for Pigweed plant response rating: 125 g ai/ha, preemergence, 0 to 100 scale, 0 no effect, 100 complete control; for Pigweed plant response rating (0 to 100 scale): 500 g ai/ha Preemergence, approx. 10 days
Method in brief: as §1

[6] = test system: ragweed (common ragweed, Ambrosia elatior); test: Test A preemergence, visual plant response rating; settings: for Ragweed plant response rating: 125 g ai/ha, preemergence, 0 to 100 scale, 0 no effect, 100 complete control; for Ragweed plant response rating (0 to 100 scale): 500 g ai/ha Preemergence, approx. 10 days
Method in brief: as §1

[7] = test system: Italian ryegrass (Lolium multiflorum); test: Test A postemergence, visual plant response rating; settings: for Ryegrass, Italian plant response rating (0 to 100 scale): 500 g ai/ha, postemergence, 0 is no effect, 100 is complete control; for Ryegrass, Italian plant response rating: Postemergence, 125 g ai/ha, 0 to 100 scale (0 no effect, 100 complete control)
Method in brief: as §1

[8] = test system: barnyardgrass (Echinochloa crus-galli); test: Test A postemergence, visual plant response rating; settings: for Barnyardgrass plant response rating (0 to 100 scale): 500 g ai/ha, postemergence, 0 is no effect, 100 is complete control; for Barnyardgrass plant response rating: Postemergence, 125 g ai/ha, 0 to 100 scale (0 no effect, 100 complete control)
Method in brief: as §1

[9] = test system: blackgrass (Alopecurus myosuroides); test: Test A postemergence, visual plant response rating; settings: for Blackgrass plant response rating (0 to 100 scale): 500 g ai/ha, postemergence, 0 is no effect, 100 is complete control; for Blackgrass plant response rating: Postemergence, 125 g ai/ha, 0 to 100 scale (0 no effect, 100 complete control)
Method in brief: as §1

corn (Zea mays) = test: Test A postemergence, visual plant response rating; settings: for Corn plant response rating (0 to 100 scale): 500 g ai/ha, postemergence, 0 is no effect, 100 is complete control; for Corn plant response rating: Postemergence, 125 g ai/ha, 0 to 100 scale (0 no effect, 100 complete control)
Method in brief: as §1

[10] = test system: foxtail, giant (giant foxtail, Setaria faberii); test: Test A postemergence, visual plant response rating; settings: for Foxtail, Giant plant response rating (0 to 100 scale): 500 g ai/ha, postemergence, 0 is no effect, 100 is complete control; for Foxtail, Giant plant response rating: Postemergence, 125 g ai/ha, 0 to 100 scale (0 no effect, 100 complete control)
Method in brief: as §1

[11] = test system: galium (catchweed bedstraw, Galium aparine); test: Test A postemergence, visual plant response rating; settings: for Galium plant response rating (0 to 100 scale): 500 g ai/ha, postemergence, 0 is no effect, 100 is complete control; for Galium plant response rating: Postemergence, 125 g ai/ha, 0 to 100 scale (0 no effect, 100 complete control)
Method in brief: as §1

kochia (Kochia scoparia) [12] = test: Test A postemergence, visual plant response rating; settings: for Kochia plant response rating (0 to 100 scale): 500 g ai/ha, postemergence, 0 is no effect, 100 is complete control; for Kochia plant response rating: Postemergence, 125 g ai/ha, 0 to 100 scale (0 no effect, 100 complete control)
Method in brief: as §1

[13] = test system: pigweed (Amaranthus retroflexus); test: Test A postemergence, visual plant response rating; settings: for Pigweed plant response rating (0 to 100 scale): 500 g ai/ha, postemergence, 0 is no effect, 100 is complete control; for Pigweed plant response rating: Postemergence, 125 g ai/ha, 0 to 100 scale (0 no effect, 100 complete control)
Method in brief: as §1

[14] = test system: ragweed (common ragweed, Ambrosia elatior); test: Test A postemergence, visual plant response rating; settings: for Ragweed plant response rating (0 to 100 scale): 500 g ai/ha, postemergence, 0 is no effect, 100 is complete control; for Ragweed plant response rating: Postemergence, 125 g ai/ha, 0 to 100 scale (0 no effect, 100 complete control)
Method in brief: as §1

[15] = test system: wheat (Triticum aestivum); test: Test A postemergence, visual plant response rating; settings: for Wheat plant response rating (0 to 100 scale): 500 g ai/ha, postemergence, 0 is no effect, 100 is complete control; for Wheat plant response rating: Postemergence, 125 g ai/ha, 0 to 100 scale (0 no effect, 100 complete control)
Method in brief: as §1

[16] = test system: barnyardgrass (Echinochloa crus-galli); test: Test B flooded paddy test, visual plant response rating; settings: 250 g ai/ha, Flood, applied to paddy water, 2-leaf stage, evaluated after 13 to 15 days
Method in brief: (§2)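 Visual scores compare treated plants with controls after 13 to 15 days of greenhouse growth. Treatment was made into paddy water standing 3 cm above the soil, with plants at the 2-leaf stage and flooding maintained throughout.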

[17] = test system: ducksalad (Heteranhera limosa); test: as above; settings: 250 g ai/ha, Flood, applied to paddy water, 2-leaf stage, evaluated after 13 to 15 days
Method in brief: as §2

rice (Oryza sativa) = test: as above; settings: 250 g ai/ha, Flood, applied to paddy water, 2-leaf stage, evaluated after 13 to 15 days
Method in brief: as §2

[18] = test system: sedge, umbrella (small-flower umbrella sedge, Cyperus difformis); test: as above; settings: 250 g ai/ha, Flood, applied to paddy water, 2-leaf stage, evaluated after 13 to 15 days
Method in brief: as §2

SMILES	Ryegrass, Italian plant response rating [1]	Ryegrass, Italian plant response rating (0 to 100 scale) [1]	Barnyardgrass plant response rating [2]	Barnyardgrass plant response rating (0 to 100 scale) [2]	Foxtail, Giant plant response rating [3]	Foxtail, Giant plant response rating (0 to 100 scale) [3]	Kochia plant response rating (kochia (Kochia scoparia) [4])	Kochia plant response rating (0 to 100 scale) (kochia (Kochia scoparia) [4])	Pigweed plant response rating [5]	Pigweed plant response rating (0 to 100 scale) [5]	Ragweed plant response rating [6]	Ragweed plant response rating (0 to 100 scale) [6]	Ryegrass, Italian plant response rating (0 to 100 scale) [7]	Ryegrass, Italian plant response rating [7]	Barnyardgrass plant response rating (0 to 100 scale) [8]	Barnyardgrass plant response rating [8]	Blackgrass plant response rating (0 to 100 scale) [9]	Blackgrass plant response rating [9]	Corn plant response rating (0 to 100 scale) (corn (Zea mays))	Corn plant response rating (corn (Zea mays))	further results
CO/N=C(\c1cccc(C(F)(F)F)c1)c1c(O)c(C)nn(C)c1=O [Compound 71]	0	20	0	0	0	0	0	0	20	60	10	30	40	40	30	10	50	20	10	0	Foxtail, Giant plant response rating (0 to 100 scale) [10]: 20; Foxtail, Giant plant response rating [10]: 10; Galium plant response rating (0 to 100 scale) [11]: 80; Galium plant response rating [11]: 60; Kochia plant response rating (0 to 100 scale) (kochia (Kochia scoparia) [12]): 60; Kochia plant response rating (kochia (Kochia scoparia) [12]): 50; Pigweed plant response rating (0 to 100 scale) [13]: 70; Pigweed plant response rating [13]: 60; Ragweed plant response rating (0 to 100 scale) [14]: 60; Ragweed plant response rating [14]: 20; Wheat plant response rating (0 to 100 scale) [15]: 40; Wheat plant response rating [15]: 20; Plant response rating, Barnyardgrass (0 to 100 scale, 0 is no effect, 100 is complete control) [16]: 0; Plant response rating, Ducksalad (0 to 100 scale, 0 is no effect, 100 is complete control) [17]: 0; Plant response rating, Rice (0 to 100 scale, 0 is no effect, 100 is complete control) (rice (Oryza sativa)): 10; Plant response rating, Sedge, Umbrella (0 to 100 scale, 0 is no effect, 100 is complete control) [18]: 0
CO/N=C(\c1ccc(F)cc1C)c1c(O)c(C)nn(C)c1=O [Compound 72]	0	40	0	0	0	10	0	0	0	20	0	20	40	0	0	0	0	20	20	0	Foxtail, Giant plant response rating (0 to 100 scale) [10]: 10; Foxtail, Giant plant response rating [10]: 0; Galium plant response rating (0 to 100 scale) [11]: 70; Galium plant response rating [11]: 70; Kochia plant response rating (0 to 100 scale) (kochia (Kochia scoparia) [12]): 60; Kochia plant response rating (kochia (Kochia scoparia) [12]): 20; Pigweed plant response rating (0 to 100 scale) [13]: 80; Pigweed plant response rating [13]: 30; Ragweed plant response rating (0 to 100 scale) [14]: 70; Ragweed plant response rating [14]: 40; Wheat plant response rating (0 to 100 scale) [15]: 20; Wheat plant response rating [15]: 0; Plant response rating, Barnyardgrass (0 to 100 scale, 0 is no effect, 100 is complete control) [16]: 0; Plant response rating, Ducksalad (0 to 100 scale, 0 is no effect, 100 is complete control) [17]: 0; Plant response rating, Rice (0 to 100 scale, 0 is no effect, 100 is complete control) (rice (Oryza sativa)): 0; Plant response rating, Sedge, Umbrella (0 to 100 scale, 0 is no effect, 100 is complete control) [18]: 0
CON=C(c1cc(C(F)(F)F)ccc1Cl)c1c(O)c(C)nn(C)c1=O [Compound 73]	20	50	20	80	20	80	0	20	70	100	30	90	90	40	60	20	90	30	20	0	Foxtail, Giant plant response rating (0 to 100 scale) [10]: 60; Foxtail, Giant plant response rating [10]: 30; Galium plant response rating (0 to 100 scale) [11]: 70; Galium plant response rating [11]: 70; Kochia plant response rating (0 to 100 scale) (kochia (Kochia scoparia) [12]): 80; Kochia plant response rating (kochia (Kochia scoparia) [12]): 60; Pigweed plant response rating (0 to 100 scale) [13]: 90; Pigweed plant response rating [13]: 80; Ragweed plant response rating (0 to 100 scale) [14]: 80; Ragweed plant response rating [14]: 50; Wheat plant response rating (0 to 100 scale) [15]: 40; Wheat plant response rating [15]: 20; Plant response rating, Barnyardgrass (0 to 100 scale, 0 is no effect, 100 is complete control) [16]: 0; Plant response rating, Ducksalad (0 to 100 scale, 0 is no effect, 100 is complete control) [17]: 0; Plant response rating, Rice (0 to 100 scale, 0 is no effect, 100 is complete control) (rice (Oryza sativa)): 0; Plant response rating, Sedge, Umbrella (0 to 100 scale, 0 is no effect, 100 is complete control) [18]: 0
CO/N=C(\c1cccc(C#N)c1)c1c(O)c(C)nn(C)c1=O [Compound 74]	0	0	0	0	0	0	0	0	0	0	0	0	20	10	0	0	20	0	0	0	Foxtail, Giant plant response rating (0 to 100 scale) [10]: 0; Foxtail, Giant plant response rating [10]: 0; Galium plant response rating (0 to 100 scale) [11]: 50; Galium plant response rating [11]: 10; Kochia plant response rating (0 to 100 scale) (kochia (Kochia scoparia) [12]): 30; Kochia plant response rating (kochia (Kochia scoparia) [12]): 0; Pigweed plant response rating (0 to 100 scale) [13]: 30; Pigweed plant response rating [13]: 20; Ragweed plant response rating (0 to 100 scale) [14]: 20; Ragweed plant response rating [14]: 0; Wheat plant response rating (0 to 100 scale) [15]: 0; Wheat plant response rating [15]: 0; Plant response rating, Barnyardgrass (0 to 100 scale, 0 is no effect, 100 is complete control) [16]: 0; Plant response rating, Ducksalad (0 to 100 scale, 0 is no effect, 100 is complete control) [17]: 25; Plant response rating, Rice (0 to 100 scale, 0 is no effect, 100 is complete control) (rice (Oryza sativa)): 15; Plant response rating, Sedge, Umbrella (0 to 100 scale, 0 is no effect, 100 is complete control) [18]: 10

Source: patent US20210045385A1, “PYRIDAZINONE-SUBSTITUTED KETOXIMES AS HERBICIDES” (FMC Corporation, priority 2018, published 2021)
